According to patent US7834005B2, “Pyrrolobenzodiazepine derivatives, compositions comprising the same and methods related thereto” (The United States of America as represented by the …, priority 2003, dated 2010):
Where “and” joins values, the source holds several entries; their conditions need not be identical. Equal entries are not always repeated.

Tests used:
[1] = test system: standard panel of 12 tumor cell lines; assay: hollow fiber assay; format: in vivo, mice
Experimental: A standard panel of 12 tumor cell lines was used for the routine hollow fiber screening. These included NCI-H23, NCI-H522, MDA-MB-231, MDA-MB-435, SW-620, COLO 205, LOX, UACC-62, OVCAR-3, OVCAR-5, U251 and SF-295. In addition, alternate lines were used for specialized testing of compounds on a nonroutine basis. The cell lines were cultivated in RPMI-1640 containing 10% FBS and 2 mM glutamine. On the day preceeding hollow fiber preparation, the cells were given a supplementation of fresh medium to maintain log phase growth. For fiber preparation, the cells were harvested by standard trypsinization technique and resuspended at the desired cell density ((2-10×10^6 cells/ml). The cell suspension was flushed into 1 mm (internal diameter) polyvinylidene fluoride hollow fibers with a molecular weight exclusion of 500,000 Da. The hollow fibers were heat-sealed at 2 cm intervals and the samples generated from these seals were placed into tissue culture medium and incubated at 37° C. in 5% CO2 for 24 to 48 hours prior to implantation. A total of 3 different tumor lines were prepared for each experiment so that each mouse receives 3 intraperitoneal implants (1 of each tumor line) and 3 subcutaneous implants (1 of each tumor line). On the day of implantation, samples of each tumor cell line preparation were quantitated for viable cell mass by a stable endpoint MTT assay so that the time zero cell mass is known. Mice were treated with experimental agents starting on day 3 or 4 following fiber implantation and continuing daily for 4 days. Each agent was administered by intraperitoneal injection at 2 dose levels. The fibers were collected from the mice on the day following the fourth compound treatment and subjected to the stable endpoint MTT assay. The optical density of each sample was determined spectrophotometrically at 540 nm and the mean of each treatment group was calculated. The percent net growth for each cell line in each treatment group was calculated and compared to the percent net growth in the vehicle treated controls. A 50% or greater reduction in percent net growth in the treated samples compared to the vehicle control samples was considered a positive result. Each positive result was given a score of 2 and all of the scores were totaled for a given compound. The maximum possible score for an agent is 96 (12 cell lines×2 sites×2 dose levels×2 [score]).

[2] = in vivo efficacy, LOX (melanoma) tumor model; parameters: species or system athymic mice; conditions: athymic, mouse, in vivo, intravenous, QD X5, intravenous
Experimental: (§1) NSC 694501 was evaluated for in vivo efficacy in athymic mice bearing 8 subcutaneous tumor models: LOX and UACC-62 (melanoma), OVCAR-3 and OVCAR-5 (ovarian ca), MDA-MB-435 (breastca), SF-295 and C-6 (glioma), and LS-174T (colonca). The models were selected on the basis of hollow fiber assays and in vitro time course assays.
(§2) A qDx5 schedule conferred better efficacy than a q4Dx3 schedule in each of the 4 models tested on two schedules. NSC 694501 was active over a wide dosage range in athymic mice using compound prepared fresh just prior to injection in 1% EtOH vehicle: On a qDx5 schedule, the maximum tolerated dose was approximately 120 μg/kg/dose and the minimum effective dose in one of the most sensitive models (SF-295) was 16 μg/kg/dose.

LOX (melanoma) = assay: in vivo efficacy, LOX (melanoma) tumor model; parameters: species or system athymic mice; conditions: intravenous
Experimental: as §1, §2

[3] = in vivo efficacy, UACC-62 (melanoma) subcutaneous tumor model; parameters: species or system athymic mice; conditions: athymic, mouse, in vivo, UACC-62, Early-SC
Experimental: as §1, §2

UACC-62 (melanoma) = assay: as above; parameters: species or system athymic mice; conditions: UACC-62, Early-SC, intravenous
Experimental: as §1, §2

[4] = in vivo efficacy, OVCAR-3 (ovarian ca) subcutaneous tumor model; parameters: species or system athymic mice; conditions: athymic, mouse, in vivo, OVCAR-3, Early-SC
Experimental: as §1, §2

OVCAR-3 (ovarian ca) = assay: as above; parameters: species or system athymic mice; conditions: OVCAR-3, Early-SC, intravenous
Experimental: as §1, §2

[5] = in vivo efficacy, OVCAR-5 (ovarian ca) subcutaneous tumor model; parameters: species or system athymic mice; conditions: athymic, mouse, in vivo, OVCAR-5, Early-SC
Experimental: as §1, §2

C-6 (rat glioma) = assay: in vivo efficacy, C-6 (rat glioma) in nude rats; conditions: i.v.; for BW Loss / Growth Delay % [(T − C)/C] / Optimal % T/C: C-6, Early-SC, nude rats
[6] = test system: LS-174 (human colon cancer); assay: in vivo efficacy, LS-174 (human colon cancer) in nude rats; conditions: i.v.; for BW Loss / Growth Delay % [(T − C)/C] / Optimal % T/C: LS-174, Early-SC, nude rats
[7] = in vivo efficacy, summary over 8 subcutaneous tumor models; parameters: species or system athymic mice; conditions: mouse, in vivo, intravenous; athymic mice, qDx5 schedule, prepared fresh in 1% EtOH vehicle; read-out: maximum tolerated dose
Experimental: as §1, §2

[8] = test system: 8 subcutaneous tumor models; assay: as above; parameters: species or system athymic mice
Experimental: as §1, §2

[9] = Early-SC, QD X5, 0.054 mg/kg/dose

C=C1C[C@H]2C=Nc3cc(OCCCOc4cc5c(cc4OC)C(=O)N4CC(=C)C[C@H]4C=N5)c(OC)cc3C(=O)N2C1 [NSC 694501]
cell lines killed ([1]; hollow fiber assay): three cell lines killed: UACC-62 melanoma, OVCAR-3 ovarian cancer, and MDA-MB-435 breast cancer
hollow fiber assay score, intraperitoneal [i.p.] ([1]; intraperitoneal implants): 40
hollow fiber assay total score ([1]; ip + sc, maximum possible score 96): 54
hollow fiber assay score, subcutaneous [s.c.] ([1]; subcutaneous implants): 14
MTD at 5 days ([2]; Early-SC): 0.054 mg/kg
MTD at 5 days ([2]; IP): 0.4 mg/kg
BW Loss (LOX (melanoma); [9]): 17.6%
Growth Delay % [(T − C)/C] (LOX (melanoma); [9]): 498%
Optimal % T/C (LOX (melanoma); [9]): 7%
value in parentheses in Growth Delay column (LOX (melanoma); [9]): 4.3 L
BW Loss (LOX (melanoma); IP, QD X5, 0.40 mg/kg/dose): 20.7%
ILS (LOX (melanoma); IP, QD X5, 0.40 mg/kg/dose): [−10% ILS]
MTD at 9 days ([3]; Q4D X3, intravenous): 0.45 mg/kg
MTD at 5 days ([3]; QD X5, intravenous): 0.054 mg/kg
BW Loss (UACC-62 (melanoma); Q4D X3, .45 mg/kg/dose): 20.9%
Growth Delay % [(T − C)/C] (UACC-62 (melanoma); Q4D X3, .45 mg/kg/dose): 43%
Optimal % T/C (UACC-62 (melanoma); Q4D X3, .45 mg/kg/dose): 28%
BW Loss (UACC-62 (melanoma); QD X5, 0.054 mg/kg/dose): 20.2%
Growth Delay % [(T − C)/C] (UACC-62 (melanoma); QD X5, 0.054 mg/kg/dose): 150%
Optimal % T/C (UACC-62 (melanoma); QD X5, 0.054 mg/kg/dose): 26%
value in parentheses in Growth Delay column (UACC-62 (melanoma); QD X5, 0.054 mg/kg/dose): 0.9 L
MTD at 9 days ([4]; Q4D X3, intravenous): 0.45 mg/kg
MTD at 5 days ([4]; QD X5, intravenous): 0.27 mg/kg
BW Loss (OVCAR-3 (ovarian ca); Q4D X3, 0.45 mg/kg/dose): 6.6% and 13.9%
Growth Delay % [(T − C)/C] (OVCAR-3 (ovarian ca); Q4D X3, 0.45 mg/kg/dose): 73% and 55%
Optimal % T/C (OVCAR-3 (ovarian ca); Q4D X3, 0.45 mg/kg/dose): 20% and 10%
BW Loss (OVCAR-3 (ovarian ca); QD X5, .27 mg/kg/dose): 7.9%
Growth Delay % [(T − C)/C] (OVCAR-3 (ovarian ca); QD X5, .27 mg/kg/dose): 114%
Optimal % T/C (OVCAR-3 (ovarian ca); QD X5, .27 mg/kg/dose): 9%
value in parentheses in Growth Delay column (OVCAR-3 (ovarian ca); QD X5, .27 mg/kg/dose): 1.9 L
MTD at 9 days ([5]; Q4D X3, intravenous): 0.45 mg/kg
MTD at 5 days ([5]; QD X5, intravenous): 0.081 mg/kg
BW Loss (C-6 (rat glioma); QD X5, 0.018 mg/kg): 0.0%
Growth Delay % [(T − C)/C] (C-6 (rat glioma); QD X5, 0.018 mg/kg): 13%
Optimal % T/C (C-6 (rat glioma); QD X5, 0.018 mg/kg): 56%
BW Loss (C-6 (rat glioma); QD X5, 0.027 mg/kg): 6.3%
Growth Delay % [(T − C)/C] (C-6 (rat glioma); QD X5, 0.027 mg/kg): 20%
Optimal % T/C (C-6 (rat glioma); QD X5, 0.027 mg/kg): 47%
BW Loss (C-6 (rat glioma); QD X5, 0.040 mg/kg): 0.8%
Growth Delay % [(T − C)/C] (C-6 (rat glioma); QD X5, 0.040 mg/kg): 49%
Optimal % T/C (C-6 (rat glioma); QD X5, 0.040 mg/kg): 24%
tolerability and efficacy (C-6 (rat glioma); nude rats bearing C-6, 27 and 40 μg/kg/dose, qDx5): well tolerated and efficacious
BW Loss ([6]; QD X5, 0.018 mg/kg): 0.0%
Growth Delay % [(T − C)/C] ([6]; QD X5, 0.018 mg/kg): 43%
Optimal % T/C ([6]; QD X5, 0.018 mg/kg): 41%
BW Loss ([6]; QD X5, 0.027 mg/kg): 2.2%
Growth Delay % [(T − C)/C] ([6]; QD X5, 0.027 mg/kg): 93%
Optimal % T/C ([6]; QD X5, 0.027 mg/kg): 21%
BW Loss ([6]; QD X5, 0.040 mg/kg): 1.4%
Growth Delay % [(T − C)/C] ([6]; QD X5, 0.040 mg/kg): 83%
Optimal % T/C ([6]; QD X5, 0.040 mg/kg): 17%
tolerability and efficacy ([6]; nude rats bearing LS-174, 27 and 40 μg/kg/dose, qDx5): well tolerated and efficacious
MTD at 5 days [7]: ~0.12 mg/kg
cell kill ([8]; i.v bolus): multi-log cell kill in 4 models
growth delays ([8]; i.v bolus): significant growth delays in 7 models
activity in tumor models ([8]; i.v bolus drug delivery): active in each of the 8 tumor models
